Patent publication US9167818B2, “Active compounds combinations comprising prothioconazole and fluxapyroxad” (BAYER CROPSCIENCE AG, priority 2010, dated 2015)

Test system: Alternaria solani
Test: Alternaria test (tomatoes) / preventive
Type: in vivo, Alternaria solani on tomatoes
Conditions: single active, preventive spray, evaluated 3 days after inoculation
From the text: The expected activity for a given combination of two active compounds can be calculated as follows (cf. Colby, S. R., “Calculating Synergistic and Antagonistic Responses of Herbicide Combinations”, Weeds 1967, 15, 20-22): If • X is the efficacy when active compound A is applied at an application rate of m ppm (or g/ha), • Y is the efficacy when active compound B is applied at an application rate of n ppm (or g/ha), • E is the efficacy when the active compounds A and B are applied at application rates of m and n ppm (or g/ha), respectively, and then
The degree of efficacy, expressed in % is denoted. 0% means an efficacy which corresponds to that of the control while an efficacy of 100% means that no disease is observed.
If the actual fungicidal activity exceeds the calculated value, then the activity of the combination is superadditive, i.e. a synergistic effect exists. In this case, the efficacy which was actually observed must be greater than the value for the expected efficacy (E) calculated from the abovementioned formula.
To produce a suitable preparation of active compound, 1 part by weight of active compound is mixed with the stated amounts of solvent and emulsifier, and the concentrate is diluted with water to the desired concentration. To test for preventive activity, young plants are sprayed with the preparation of active compound at the stated rate of application. After the spray coating has dried on, the plants are inoculated with an aqueous spore suspension of Alternaria solani. The plants are then placed in an incubation cabinet at approximately 20° C. and a relative atmospheric humidity of 100%. The test is evaluated 3 days after the inoculation. 0% means an efficacy which corresponds to that of the untreated control while an efficacy of 100% means that no disease is observed.

Row | Structure (SMILES) | Efficacy in % found (application rate 0.5 ppm a.i.) [%] | Efficacy in % found (application rate 1 ppm a.i.) [%] | Efficacy in % found (application rate 2 ppm a.i.) [%] | Efficacy in % found (application rate 0.25 ppm a.i.) [%]
1 | Fc1ccc([C@]2(Cn3cncn3)O[C@H]2c2ccccc2Cl)cc1 (racemic) [Epoxiconazole, epoxiconazole] | 41 | 53 | 59 | 
2 | OC(Cc1ccccc1Cl)(Cn1[nH]cnc1=S)C1(Cl)CC1 (stereo not drawn) [(A) Prothioconazole, 2-[2-(1-chlorocyclopropyl)-3-(2-chlorophenyl)-2-hydroxypropyl]-1,2-dihydro-3H-1,2,4-triazole-3-thione] | 0 | 18 | 41 | 
3 | Cn1cc(C(=O)Nc2ccccc2-c2cc(F)c(F)c(F)c2)c(C(F)F)n1 [(B) Fluxapyroxad, 3-(difluoromethyl)-1-methyl-N-(3′,4′,5′-trifluorobiphenyl-2-yl)pyrazole-4-carboxamide] | 65 | 87 |  | 62
